Patent publication US5175290A, “8-(oxo-substituted cycloalkyl)xanthines” (Marion Merrell Dow Inc., priority 1988, dated 1992)

Tested on: not given
Assay: not given
Settings: bronchial asthma; cited from earlier work
For `Cn1c(=O)c2[nH]cnc2n(C)c1=O` [Theophylline], the vital capacity is given as “demonstrable increase in vital capacity”.

Tested on: histamine-induced bronchoconstriction
Assay: Reversal of histamine-induced bronchoconstriction in the anesthetized guinea pig
Assay type: in vivo
Settings: Cavia porcellus, iv; guinea pigs; dose required to reverse the histamine response by 50%
Description: Reversal of histamine-induced bronchoconstriction in the anesthetized guinea pig
A modification of the general method of H. Konzett and R. Rossler [Naunyn-Schmiedeberg's Arch. Pharmakol.
Male Duncan-Hartley guinea pigs (400-600) were anesthetized using an intratraperitoneal injection of urethane (1.5 g/kg). After the neck area was shaved, the animal was placed in the dorsal recumbent position on a Narco temperature controlled surgical board (37° C.) to maintain body temperature. Following a midline neck incision, the carotid artery and jugular vein were cannulated using PE50 polyethylene tubing. Both catheters were flushed with heparinized saline (20 U/mL) to prevent clotting. The trachea was then cannulated using a 15 gauge Leuer stub and was connected to a Harvard Apparatus small animal respirator. The animal was ventilated at a constant rate and volume (52 breaths/minute and 1 mL room air/[…] body weight). Airway pressure was measured using a Statham pressure transducer connected to the side port of the tracheal cannula. The arterial blood pressure was measured using a Statham pressure transducer connected to the carotid artery. Both transducers were connected to a Gould chart recorder to produce the desired physiographs.
After allowing the animal to stabilize for 10 minutes, aerosolized histamine (0.01%) was delivered to the airways using a DeVilbiss ultrasonic nebulizer connected in-line between the respirator and the guinea pig. After the maximum bronchoconstriction was reached, as evidenced by a maximum plateau in airway pressure, an injection of vehicle (0.6 mL) was administered via the jugular vein. […] At the end of the experiment, terbutaline sulfate (1 mg/mL), a beta agonist, was injected i.v. to determine if further bronchodilation could be achieved The nebulizer was then turned off and the minimum airway pressure was recorded to determine the final baseline pressure.
ED50 (mg/kg) values and maximum effect (%) were calculated using SAS and PROBIT computer analyses. […] The maximum effect is the maximum percent reversal of histamine-induced bronchoconstriction produced by the test compound.
For `CCCn1c(=O)c2[nH]c([C@H]3CC[C@H](O)C3)nc2n(CCC)c1=O` (relative stereo) [trans, trans-8-(3-hydroxycyclopentyl)-1,3-dipropylxanthine], the ED50 was 11.6 ± 1.6 mg/kg. For `CCCn1c(=O)c2[nH]c(C3CCC(O)C3)nc2n(CCC)c1=O` (mixture of isomers) [cis/trans], the ED50 was 20.3 ± 4.6 mg/kg. `CCCn1c(=O)c2[nH]c([C@H]3CC[C@@H](O)C3)nc2n(CCC)c1=O` (relative stereo) [cis, cis-8-(3-hydroxycyclopentyl)-1,3-dipropylxanthine] showed an ED50 of 14.1 ± 3.6 mg/kg. `Cn1c(=O)c2[nH]cnc2n(C)c1=O` [Theophylline] showed an ED50 of 35.1 ± 5.3 mg/kg. With `CCCn1c(=O)[nH]c(=O)c2[nH]cnc21` [Enprofylline, 3-propylxanthine] the ED50 was 13.1 ± 3.1 mg/kg.

Same assay, conditions: guinea pigs, i.v.
With `CCCn1c(=O)c2[nH]c([C@H]3CC[C@H](O)C3)nc2n(CCC)c1=O` (relative stereo) [trans, trans-8-(3-hydroxycyclopentyl)-1,3-dipropylxanthine] the “maximum effect (maximum percent reversal of histamine-induced bronchoconstriction)” value was 78.5 ± 4.0%. With `CCCn1c(=O)c2[nH]c(C3CCC(O)C3)nc2n(CCC)c1=O` (mixture of isomers) [cis/trans] the “maximum effect (maximum percent reversal of histamine-induced bronchoconstriction)” value was 64.0 ± 4.8%. For `CCCn1c(=O)c2[nH]c([C@H]3CC[C@@H](O)C3)nc2n(CCC)c1=O` (relative stereo) [cis, cis-8-(3-hydroxycyclopentyl)-1,3-dipropylxanthine], the “maximum effect (maximum percent reversal of histamine-induced bronchoconstriction)” value was 72.8 ± 6.8%. In the case of `Cn1c(=O)c2[nH]cnc2n(C)c1=O` [Theophylline], the “maximum effect (maximum percent reversal of histamine-induced bronchoconstriction)” value is reported as 72.8 ± 6.6%. For `CCCn1c(=O)[nH]c(=O)c2[nH]cnc21` [Enprofylline, 3-propylxanthine], the “maximum effect (maximum percent reversal of histamine-induced bronchoconstriction)” value was 84.8 ± 3.6%.

Tested on: pentobarbital-induced heart failure
Assay: Pentobarbital-induced heart failure in rats
Assay type: in vivo, rat (Sprague-Dawley)
Settings: Rattus norvegicus, iv, read-out: RD40, dP/dt
Description: Adult male Sprague-Dawley rats (350-450 g) were used in this example. Animals were anesthetized using sodium pentobarbital (40-50 mg/kg, i.p.) and placed supine on a heated (37° C.) surgical table. A 7F pressure tipped catheter (Millar) was inserted into the left carotid artery and advanced into the left ventricle of the heart to measure left ventricular pressure (LVP), dP/dt and heart rate (HR). Mean arterial blood pressure (MABP) was monitored via a PE-50 catheter placed into a femoral artery. The right jugular vein and a femoral vein were catheterized with PE-10 tubing for infusion of the test compounds and pentobarbital, respectively.
Following bilateral cervical vagotomy, a 15 gauge blunt needle was inserted into the trachea via a midcervical tracheostomy to ventilate the animals (60/minute, TV=2.3 mL) Each animal was allowed a 5-10 minute period to stabilize and control measurements were recorded. A dose of 60-70 mg/kg of pentobarbital wa then administered slowly over a 5 minute period via the femoral vein until MABP was stabilized at 60 mm Hg, at which time an infusion of 0.2 mg/kg/minute of pentobarbital was begun and continued throughout the experiment. Each animal was then allowed 10-15 minutes to stabilize and values representing heart failure were recorded. Control and test compounds were tested in a cumulative-dose manner using at least four doses. Dose-related effects, e.g., dP/dt and MABP were continually monitored during a 15 minute recovery period between each dose. At the time of the peak dP/dt response during each recovery period, values for all four variables were recorded. The animals were sacrificed using a lethal injection of pentobarbital 15 minutes following the last dose of the test compound. Only one compound was administered to each animal.
The RD40 is defined as the dose of compound required to achieve a 40% recovery in the variable (dP/dt, MABP) being measured. It was calculated for each compound using an SAS® probit analysis on a Vax computer. Briefly, the program transforms the dose into log 10 and calculates the line of least squares using the mean value for recovery at each dose. In most instances the RD40 was then extrapolated, but in those instances where a full dose-response curve was not achieved because of the limited solubility of the compound, the RD40 was estimated.
Work on `Cn1c(=O)c2[nH]cnc2n(C)c1=O` [Theophylline] yielded an ED40 of 18 mg/kg.

Same assay, conditions: Rattus norvegicus, iv, read-out: RD40, heart rate
`Cn1c(=O)c2[nH]cnc2n(C)c1=O` [Theophylline] showed an ED40 of 94 mg/kg.

Same assay, conditions: Rattus norvegicus, iv; rats, i.v.; dose for 40% recovery in dP/dt; extrapolated or estimated by probit; read-out: RD40, dP/dt
For `CCCn1c(=O)c2[nH]c([C@H]3CC[C@H](O)C3)nc2n(CCC)c1=O` (relative stereo) [trans, trans-8-(3-hydroxycyclopentyl)-1,3-dipropylxanthine], the ED40 was 7.8 mg/kg. With `CCCn1c(=O)c2[nH]c(C3CCC(O)C3)nc2n(CCC)c1=O` (mixture of isomers) [cis/trans] the ED40 was 19 mg/kg. Compound `CCCn1c(=O)c2[nH]c([C@H]3CC[C@@H](O)C3)nc2n(CCC)c1=O` (relative stereo) [cis, cis-8-(3-hydroxycyclopentyl)-1,3-dipropylxanthine] has an ED40 of 17.7 mg/kg. With `CCCn1c(=O)[nH]c(=O)c2[nH]cnc21` [Enprofylline, 3-propylxanthine] the ED40 was 48 mg/kg. `Nc1cc(-c2ccncc2)c[nH]c1=O` [Amrinone] gave an ED40 of 4.12 mg/kg.

Same assay, conditions: Rattus norvegicus, iv; rats, i.v.; extrapolated or estimated by probit; read-out: RD40, heart rate
Compound `CCCn1c(=O)c2[nH]c([C@H]3CC[C@H](O)C3)nc2n(CCC)c1=O` (relative stereo) [trans, trans-8-(3-hydroxycyclopentyl)-1,3-dipropylxanthine] has an ED40 of 3.1 mg/kg. For `CCCn1c(=O)c2[nH]c(C3CCC(O)C3)nc2n(CCC)c1=O` (mixture of isomers) [cis/trans], the ED40 was 20 mg/kg. For `CCCn1c(=O)c2[nH]c([C@H]3CC[C@@H](O)C3)nc2n(CCC)c1=O` (relative stereo) [cis, cis-8-(3-hydroxycyclopentyl)-1,3-dipropylxanthine], the ED40 was 120 mg/kg. For `CCCn1c(=O)[nH]c(=O)c2[nH]cnc21` [Enprofylline, 3-propylxanthine], the ED40 was 93 mg/kg. Work on `Nc1cc(-c2ccncc2)c[nH]c1=O` [Amrinone] yielded an ED40 of 77 mg/kg.

Same assay, conditions: rats, i.v.
With `CCCn1c(=O)c2[nH]c([C@H]3CC[C@H](O)C3)nc2n(CCC)c1=O` (relative stereo) [trans, trans-8-(3-hydroxycyclopentyl)-1,3-dipropylxanthine] the “dP/dt, maximum recovery” value was 71%. In the case of `CCCn1c(=O)c2[nH]c(C3CCC(O)C3)nc2n(CCC)c1=O` (mixture of isomers) [cis/trans], the “dP/dt, maximum recovery” value is reported as 30%. For `CCCn1c(=O)c2[nH]c([C@H]3CC[C@@H](O)C3)nc2n(CCC)c1=O` (relative stereo) [cis, cis-8-(3-hydroxycyclopentyl)-1,3-dipropylxanthine], the “dP/dt, maximum recovery” value was 53%. In the case of `Cn1c(=O)c2[nH]cnc2n(C)c1=O` [Theophylline], the “dP/dt, maximum recovery” value is reported as 50%. In the case of `CCCn1c(=O)[nH]c(=O)c2[nH]cnc21` [Enprofylline, 3-propylxanthine], the “dP/dt, maximum recovery” value is reported as 30%. With `Nc1cc(-c2ccncc2)c[nH]c1=O` [Amrinone] the “dP/dt, maximum recovery” value was 63%.

Same assay, conditions: rats, i.v.; bracketed value under RD40 heart rate
For `CCCn1c(=O)c2[nH]c([C@H]3CC[C@H](O)C3)nc2n(CCC)c1=O` (relative stereo) [trans, trans-8-(3-hydroxycyclopentyl)-1,3-dipropylxanthine], the “heart rate, maximum recovery dose” value was 120 mg/kg. For `CCCn1c(=O)c2[nH]c(C3CCC(O)C3)nc2n(CCC)c1=O` (mixture of isomers) [cis/trans], the “heart rate, maximum recovery dose” value was 30 mg/kg. In the case of `CCCn1c(=O)c2[nH]c([C@H]3CC[C@@H](O)C3)nc2n(CCC)c1=O` (relative stereo) [cis, cis-8-(3-hydroxycyclopentyl)-1,3-dipropylxanthine], the “heart rate, maximum recovery dose” value is reported as 20 mg/kg. With `Cn1c(=O)c2[nH]cnc2n(C)c1=O` [Theophylline] the “heart rate, maximum recovery dose” value was 50 mg/kg. For `CCCn1c(=O)[nH]c(=O)c2[nH]cnc21` [Enprofylline, 3-propylxanthine], the “heart rate, maximum recovery dose” value was 50 mg/kg. In the case of `Nc1cc(-c2ccncc2)c[nH]c1=O` [Amrinone], the “heart rate, maximum recovery dose” value is reported as 10 mg/kg.

Tested on: A1 and A2 adenosine receptors
Assay: not given
Settings: A1 versus A2; cited from earlier work
In the case of `Cn1c(=O)c2[nH]cnc2n(C)c1=O` [Theophylline], the “effectiveness in displacing ligands from both the A1 and A2 adenosine receptors” value is given as “about equally effective”. For `Cn1c(=O)c2c(ncn2C)n(C)c1=O` [caffeine], the “effectiveness in displacing ligands from both the A1 and A2 adenosine receptors” value is given as “about equally effective”.

Tested on: basal heart rate and basal blood pressure
Assay: Cardiovascular effects (basal heart rate and basal blood pressure) in guinea pigs
Assay type: in vivo, guinea pig
Settings: i.v., at 2 × histamine-reversal ED50, * = not significant
Description: Cardiovascular effects (basal heart rate and basal blood pressure) in guinea pigs
Male guinea pigs were anesthetized with urethane and the carotid artery and jugular vein were cannulated. Aortic blood pressure was recorded from a pressure transducer and the signal was integrated to give a heart rate signal.
Each animal received a single intravenous injection of one compound. The dose of each compound was based upon the ED50 value from the reversal of histamine-induced bronchoconstriction in the anesthetized guinea pig. Thus the various compounds were studied at equipotent bronchodilator doses (2×ED50). A group of control animals received injections of vehicle only. Changes in heart rate and blood pressure from pre-injection baseline values produced by drugs or vehicle were compared.
Work on `CCCn1c(=O)c2[nH]c([C@H]3CC[C@H](O)C3)nc2n(CCC)c1=O` (relative stereo) [trans, trans-8-(3-hydroxycyclopentyl)-1,3-dipropylxanthine] yielded a Basal blood pressure of 96 ± 8% and a Basal heart rate of 107 ± 5%. Compound `CCCn1c(=O)c2[nH]c(C3CCC(O)C3)nc2n(CCC)c1=O` (mixture of isomers) [cis/trans] has a Basal blood pressure of 65 ± 3% and a Basal heart rate of 86 ± 4%. For `CCCn1c(=O)c2[nH]c([C@H]3CC[C@@H](O)C3)nc2n(CCC)c1=O` (relative stereo) [cis, cis-8-(3-hydroxycyclopentyl)-1,3-dipropylxanthine], the Basal blood pressure was 90 ± 5% and the Basal heart rate was 106 ± 3%. Compound `Cn1c(=O)c2[nH]cnc2n(C)c1=O` [Theophylline] has a Basal blood pressure of 66 ± 8% and a Basal heart rate of 132 ± 4%. In the case of `CCCn1c(=O)[nH]c(=O)c2[nH]cnc21` [Enprofylline, 3-propylxanthine], the Basal blood pressure is reported as 76 ± 10% and the Basal heart rate is reported as 120 ± 6%.

Tested on: not given
Assay: not given
Settings: in vivo; cited from earlier work
For `Cn1c(=O)c2[nH]cnc2n(C)c1=O` [Theophylline], the cardiac stimulation is given as “sometimes powerful cardiac stimulation”, the perfusion of organs is given as “increased perfusion of most organs” and the peripheral vascular resistance is given as “modest decreases in peripheral vascular resistance”.

Same assay, conditions: therapeutic doses; effect short-lived in man; cited from earlier work
For `Cn1c(=O)c2[nH]cnc2n(C)c1=O` [Theophylline], the heart rate is given as “modest increases in heart rate”.

Tested on: responses to adenosine
Assay: not given
Settings: all tissues studied, except rat hippocampus; cited from earlier work
In the case of `CCCn1c(=O)[nH]c(=O)c2[nH]cnc21` [Enprofylline, 3-propylxanthine], the “effectiveness in diminishing responses to adenosine” value is listed as “much less effective than theophylline”.
